Assay [1] has as its system Wild-type (WT) U2OS cells. Nature of the assay: Reduction in nonspecific labeling of WT cells (number of tracks vs PA-JF549). In kind it is cell-based. The following applies: 100 nM, 1 hr, ratio with PA-JF549 in the numerator. As to the method:
Using the methods described in Tables 4a and 4b above, labelling specificity of the compound of Examples 1-28 was measured and compared to PA-JF549. U2OS cells wild type or expressing ER-HaloTag fusion were incubated with PA-JF549 or Examples 1-28 for 1 hr. […] Labeling specificity, as measured by the fold reduction in nonspecific labeling of WT cells, was calculated by number of tracks measured in WT cells for Examples 1-28 compared to the number of tracks in WT cells for PA-JF549, expressed as the ratio with PA-JF549 in the numerator.

Assay [2] has as its system histone H2B-HaloTag fusion. Briefly: Halo-protein specificity (Specificity Factor), single molecule spot detection. In kind it is cell-based. The following applies: ratio of slope (spots vs dye concentration, 200 nM to 1 nM, 45 minutes) relative to PA-JF549; WT and H2B-HaloTag U2OS cells. The text has this: Images were collected every 10 msec for 5 seconds per field of view and pulses of ascending intensity 405 nm light (between 0 and 12 mW at the coverslip) were used to photoactivate dye molecules.
For each dye compound, a linear regression was used to determine the relationship between the concentration of dye compound and the number of fluorescence spots detected on the microscope, where in WT cells the ideal dye would have no correlation between compound concentration and number of slots measured. The Specificity Factor was calculated as the ratio of the slope of the compound in question relative to the slope calculated for PA-JF549 and is shown in Table 3 below.

The mark [3] stands for this setting: Table 4b, Example 19 with 642 nm light.

Seven molecules from US20260234403A1, “PHOTOACTIVE FLUORESCENT COMPOUNDS AND USE THEREOF FOR LABELING OF PROTEINS” (EIKON THERAPEUTICS, INC., priority 2023, published 2026) can be followed below.

Some results are limits rather than exact numbers.

Turning to `[N-]=[N+]=C1C(=O)c2ccc(C(=O)NCCOCCOCCCCCCCl)cc2C12c1ccc(N3CC(C(=O)O)C3)cc1Oc1cc(N3CC(C(=O)O)C3)ccc12` [Reference Example 2, 1,1′-(6-((2-(2-((6-chlorohexyl)oxy)ethoxy)ethyl)carbamoyl)-2-diazo-3-oxo-2,3-dihydrospiro[indene-1,9′-xanthene]-3′,6′-diyl)bis(azetidine-3-carboxylic acid)], the “Fold reduction in nonspecific labeling” value in assay [1] (Table 4a) and in assay [1] (setting [3]) was greater than 10 throughout. Besides, the “Specificity Factor” value in assay [2] is given as less than 1.

Take `CN(C)C(=O)C1CN(c2ccc3c(c2)Oc2cc(N4CC(C(=O)N(C)C)C4)ccc2C32C(=[N+]=[N-])C(=O)c3ccc(C(=O)NCCOCCOCCCCCCCl)cc32)C1` [Example 4, 1,1′-(6-((2-(2-((6-chlorohexyl)oxy)ethoxy)ethyl)carbamoyl)-2-diazo-3-oxo-2,3-dihydrospiro[indene-1,9′-xanthene]-3′,6′-diyl)bis(N,N-dimethylazetidine-3-carboxamide)]: the “Fold reduction in nonspecific labeling” value in assay [1] (Table 4a) and in assay [1] (setting [3]) was greater than 10 throughout. The “Specificity Factor” value in assay [2] turned out to be 23.8.

For `COC[C@H]1CCN1c1ccc2c(c1)Oc1cc(N3CC[C@@H]3COC)ccc1C21C(=[N+]=[N-])C(=O)c2ccc(C(=O)NCCOCCOCCCCCCCl)cc21` [Example 3, N-(2-(2-((6-chlorohexyl)oxy)ethoxy)ethyl)-2-diazo-3′,6′-bis((R)-2-(methoxymethyl)azetidin-1-yl)-3-oxo-2,3-dihydrospiro[indene-1,9′-xanthene]-6-carboxamide], the “Fold reduction in nonspecific labeling” value in assay [1] (Table 4a) and in assay [1] (setting [3]) was 1-5 in each case. Also, the “Specificity Factor” value in assay [2] was found to be 2.07.

Consider `COC(=O)C1CN(c2ccc3c(c2)Oc2cc(N4CC(C(=O)OC)C4)ccc2C32C(=[N+]=[N-])C(=O)c3ccc(C(=O)NCCOCCOCCCCCCCl)cc32)C1` [Reference Example 1, dimethyl 1,1′-(6-((2-(2-((6-chlorohexyl)oxy)ethoxy)ethyl)carbamoyl)-2-diazo-3-oxo-2,3-dihydrospiro[indene-1,9′-xanthene]-3′,6′-diyl)bis(azetidine-3-carboxylate)], for which the “Fold reduction in nonspecific labeling” value in assay [1] (Table 4a) and in assay [1] (setting [3]) was greater than 10 each time. For the same molecule, the “Specificity Factor” value in assay [2] came out at 2.66.

As for `[N-]=[N+]=C1C(=O)c2ccc(CCCCOCCOCCCCCCCl)cc2C12c1ccc(N3CCC3)cc1Oc1cc(N3CCC3)ccc12` [Example 24, 3′,6′-di(azetidin-1-yl)-6-(4-(2-((6-chlorohexyl)oxy)ethoxy)butyl)-2-diazospiro[indene-1,9′-xanthen]-3(2H)-one], in assay [1] (setting [3]), the “Fold reduction in nonspecific labeling” value was 1-5.

For the molecule “1,1′-(6-((2-(2-((6-chlorohexyl)oxy)ethoxy)ethyl)carbamoyl)-2-diazo-3-oxo-2,3-dihydrospiro[indene-1,9′-xanthene]-3′,6′-diyl)bis(azetidine-3-carboxamide [Example 20]”, the “Fold reduction in nonspecific labeling” value in assay [1] (setting [3]) is greater than 10.

In the case of `CN(C)C(=O)[C@H]1CCN(c2ccc3c(c2)Oc2cc(N4CC[C@H](C(=O)N(C)C)C4)ccc2C32C(=[N+]=[N-])C(=O)c3ccc(C(=O)NCCOCCOCCCCCCCl)cc32)C1` [Example 16, (3S,3′S)-1,1′-(6-((2-(2-((6-chlorohexyl)oxy)ethoxy)ethyl)carbamoyl)-2-diazo-3-oxo-2,3-dihydrospiro[indene-1,9′-xanthene]-3′,6′-diyl)bis(N,N-dimethylpyrrolidine-3-carboxamide)], the “Fold reduction in nonspecific labeling” value in assay [1] (Table 4a) and in assay [1] (setting [3]) was 5-10 each time.
